Measurements from patent publication US12263156B2, “Use of small molecule inhibitors of the BfrB:Bfd interaction in biofilms” (priority 2020, dated 2025).

Columns and labels:
[1] = tested on: P. aeruginosa PAO1 pellicle cells; assay: Total intracellular iron in biofilm-embedded cells; assay type: cell-based, Pseudomonas aeruginosa; conditions: 24 h; KM-5-25 40 μM, KM-5-66 20 μM
Description: (§1) Recombinant BfrB (BfrBrec) was used as a standard for the electrophoretic mobility of BfrB. The lane corresponding to untreated control was loaded with 0.5× the volume of the lanes loaded with lysates from treated pellicles to account for the ˜2-fold larger number of viable cells in the untreated pellicles. Lanes loaded with treated pellicle lysates show greater accumulation of iron in BfrB relative to untreated cells. […] (A), (C) and (D) show the average of results from 3 biological replicates, p<0.001 is denoted by *** relative to untreated.
(§2) Pellicle biofilms were grown for 48 hours as described above. The pellicles were transferred onto square (2 cm×2 cm) glass coverslips by gently contacting the pellicle with the coverslip. […] Levels of total intracellular iron were determined as reported previously:^23, 86 the cell pellets were treated with 500 μL of freshly prepared digestion reagent (0.6 N HCl, 2.25% (w/v) KMnO4 in water), thoroughly mixed by vortexing, and then incubated at 65° C. for 3.5 hours. […] The iron concentration was measured from the absorbance of the Fe^2+-Ferene S complex (ε593=34.5 mM^−1 cm^−1),^87 normalized by the viable cell counts and reported as Fe atoms per cell. […]

[2] = tested on: iron stored in BfrB in P. aeruginosa PAO1 pellicle cells; assay: Imaging of iron stored in BfrB in biofilm-embedded cells (native PAGE, Ferene S, densitometry); assay type: cell-based, Pseudomonas aeruginosa; conditions: 24 h; KM-5-25 40 μM, KM-5-66 20 μM
Description: as §1, §2

Row | Compound | total intracellular iron normalized to viable cell counts, relative to untreated biofilms [1] [fold] | iron in BfrB relative to untreated pellicles (Ferene S band peak areas) [2] [fold]
1 | O=C1NC(=O)c2c(NCc3cc(Cl)ccc3O)cccc21 [KM-5-25] | ~2.5 | ~3
2 | O=C1NC(=O)c2c(NCCCc3cc(O)cc(Cl)c3)cccc21 [KM-5-66] | ~2.5 | ~3
